Assay results from patent publication US12319652B2, “Salts and solid forms of (R)-1-(5-methoxy-1H-indol-1-yl)-N,N-dimethylpropan-2-amine” (priority 2021, dated 2025).

Legend:
[1] = type: physicochemical; settings: 10 days; listed as compound 1·HCl (Form A)
Method: Equilibrium Humidity Evaluation (40° C./75% RH for 10 Days)
100 mg portions of compound 1 salts (for inputs see table below) were placed in the relevant open vials. The powders were finely divided and distributed evenly over the base of the vial, such that equal material coverage across the panel was observed. These samples were then maintained 40°C. under 75% RH. The samples were sub-sampled at intervals of 5 and 10 days and analysed by ^1H NMR, HPLC, XRPD, DSC, TGA and PLM, for evidence of phase change or chemical degradation (FIG. 269-297).

[2] = Equilibrium humidity evaluation of crystalline compound 1 HCl Form A (95% RH/20° C.); type: physicochemical; settings: for XRPD (t = 0) / XRPD (t = 5 d) / XRPD (t = 10 d): 95% RH @ 20° C.; for DSC onset / XRPD: t = 10 days, 95 % RH @ 20° C.
Method: The stability of crystalline compound 1 HCl Form A was evaluated. Absorbent compound 1·Cl (Form A), (100 mg) was maintained, open-capped at 95% RH/20° C. and monitored at t=0, t=5 d and t=10 d, time points.
While absorbent Compound 1 HCl Form A), (100 mg) was placed open-capped inside double, cable-tied, electrostatic polythene bags (to mimic a typical packaging configuration) and placed inside the same humidity chamber at 95% RH at 20° C. and monitored at t=0, t=5 d and t=10 d time points. Stability of compound 1·HCl (Form A) at 40° C./75% RH was examined as part of the salt screen, and was stable over 10 d.

[3] = Dynamic vapor sorption (DVS); type: physicochemical; settings: for DVS isotherm type / hygroscopicity: 0 to 90 to 0% RH
Method: There are two main methods to use, one is by time where the equilibration is given by a fixed time, i.e., 1 hour per step and is appropriate for an unknown phase. The second, is by mass per time unit (dm/dt) of 0.002%/min; that is when the difference in weight is less than 0.002%, the instrument moves onto the next step. For unknown hygroscopicity, the method by time is indicated because it gives an idea of water affinity without wasting much time. Ideally the analyses are repeated using the mass equilibration method to confirm. By experience for hygroscopic samples, the analysis can continue for days. For non-hygroscopic samples the difference between the two methods may not be significant.
Consequently, amorphous batch 1 was analyzed by the fixed time method and once compound 1 fumarate crystalline polymorphic Form A was generated the analyses was repeated as mass per unit time equilibrated @dm/dt ([…]) and is given below (refer to FIG. 12).
(§1) The moisture sorption properties of the feed API were analysed by DVS Intrinsic instrument (Surface Measurement System). Approximately 20 to 50 mg of API was weighed onto an aluminium pan and loaded into the instrument equilibrated at 25° C. The sample was equilibrated under a dry atmosphere (0% relative humidity) for 60 minutes, before increasing the humidity from 0% to 30% at 5%4 step increment and from 30% to 90% at 10% step increment. A desorption cycle was also applied from 90% to 30% (10% step decrement) and from 30% to 0% (5% step decrement). A rate of change in mass per time unit (dm/dt) of 0.002%/min was set as the equilibrium parameter. Kinetic and isotherm graphs were calculated.
Specimens were equilibrated at 0% RH for 60 min, prior to DVS analyses (stepped increment % RH up to 90% RH and stepped decrement % RH down to 0% RH.
as §1, with “5%” for “5%4”

[4] = Solubility determinations in SIF buffers (FaSSIF, FeSSIF, FaSSGF); type: physicochemical; settings: FaSSIF, FeSSIF and FaSSGF, 37° C., 24 h, concentration tested 30 mg/ml
Method: At this stage ca. 1 g of each front-runner salt form was prepared. Salt forms that offered significant solubility and stability advantages over the non-ionized API were prioritized. […] Scale Up
The solubility of the salts below was determined in FaSSIF, FeSSIF and FaSSGF by reference to the calibration curve of amorphous compound 1.
Separate portions of compound 1 were weighed out into aluminum boats and were charged to the relevant volumetric flasks. Solutions were made to volume with 1 to 1 (v/v) acetonitrile/purified water to give calibrants of known API concentrations and analyzed by HPLC, suitable to determine the concentration of compound 1 free base in the SIF buffer solubility study.
Each sample (150 mg) was suspended in the relevant SIF buffer (5.0 ml), to give a concentration of 30 mg/ml and maintain at 37° C. for 24 h. The pH was adjusted using 1 M HCl or 1 M NaOH, to ensure that the suspension remains in range.
Sample (1 ml) of the well-stirred representative suspensions was obtained at 1 h, 3 h, 6 h and 24 h and the pH was recorded. The pH of the bulk suspension was re-adjusted when necessary. The obtained sample from each vial was centrifuged, and the supernatant was analysed by HPLC (note, the analyte was diluted, when outside of the calibration range); XRPD analysis was performed on the wet sample pellet for evidence of form change, as well as on the oven-dried pellet (undervacuum at 40° C.).

[5] = Amorphous forms and thermal study (glass temperature Tg by DSC/TGA); type: physicochemical
[6] = Heat-up/cool-down crystallization screen of Compound 1 HCl
Method: A heat up/cool down crystallization screen was performed. An compound 1 HCl Form A was used as input material. […]

[7] = Double polyethylene bagged, open vial
[8] = 2-Propanol 3.0 vol + Water 75 μl
[9] = Chlorobenzene 3.0 vol + MeOH 175 μl
[10] = Ethyl formate 3.0 vol + MeOH 225 μl
[11] = Isopropyl acetate 3.0 vol + IPA 3725 μl
[12] = Nitromethane 3.0 vol + MeOH 50 μl

COc1ccc2c(ccn2C[C@@H](C)N(C)C)c1.Cl [Crystalline compound 1 HCl Form A]
Stability at 40° C./75% RH [1]: stable
Water uptake by TG analyses ([2]; 20° C./95% RH, open-capped and double bagged vials, 10-day period): did not show any water uptake
DVS isotherm type / hygroscopicity ([3]; listed as Compound 1·HCl Form A): slightly hygroscopic
DVS isotherm type / hygroscopicity ([3]; listed as crystalline compound 1 HCl Form A): Slightly hygroscopic
DVS mass change at 0.0% RH ([3]; desorption step, dm/dt <0.002%): 0.0239%
DVS mass change at 5.0% RH ([3]; desorption step, dm/dt <0.002%): 0.0344%
DVS mass change at 10.0% RH ([3]; desorption step, dm/dt <0.002%): 0.0455%
DVS mass change at 15.0% RH ([3]; desorption step, dm/dt <0.002%): 0.0547%
DVS mass change at 20.0% RH ([3]; desorption step, dm/dt <0.002%): 0.0648%
DVS mass change at 25.0% RH ([3]; desorption step, dm/dt <0.002%): 0.0714%
DVS mass change at 30.0% RH ([3]; desorption step, dm/dt <0.002%): 0.0860%
DVS mass change at 40.0% RH ([3]; desorption step, dm/dt <0.002%): 0.0968%
DVS mass change at 50.0% RH ([3]; desorption step, dm/dt <0.002%): 0.1367%
DVS mass change at 60.0% RH ([3]; desorption step, dm/dt <0.002%): 0.1671%
DVS mass change at 70.0% RH ([3]; desorption step, dm/dt <0.002%): 0.2211%
DVS mass change at 80.0% RH ([3]; desorption step, dm/dt <0.002%): 0.2935%
DVS desorption behaviour (hysteresis) ([3]; during desorption, listed as crystalline compound 1 HCl Form A): held on to a little water at 0% RH
DVS mass change at 0.0% RH ([3]; sorption step, dm/dt <0.002%): DVS 0 to 90 to 0% RH (dm/dt <0.002%): 0.0 (0.0011%), 5.0
DVS mass change at 5.0% RH ([3]; sorption step, dm/dt <0.002%): 0.0078%
DVS mass change at 10.0% RH ([3]; sorption step, dm/dt <0.002%): 0.0161%
DVS mass change at 15.0% RH ([3]; sorption step, dm/dt <0.002%): 0.0248%
DVS mass change at 20.0% RH ([3]; sorption step, dm/dt <0.002%): 0.0329%
DVS mass change at 25.0% RH ([3]; sorption step, dm/dt <0.002%): 0.0379%
DVS mass change at 30.0% RH ([3]; sorption step, dm/dt <0.002%): 0.0462%
DVS mass change at 40.0% RH ([3]; sorption step, dm/dt <0.002%): 0.0659%
DVS mass change at 50.0% RH ([3]; sorption step, dm/dt <0.002%): 0.0961%
DVS mass change at 60.0% RH ([3]; sorption step, dm/dt <0.002%): 0.1388%
DVS mass change at 70.0% RH ([3]; sorption step, dm/dt <0.002%): 0.1902%
DVS mass change at 80.0% RH ([3]; sorption step, dm/dt <0.002%): 0.2647%
DVS mass change at 90.0% RH ([3]; sorption step, dm/dt <0.002%): 0.4599%
Solubility in SIF buffers [4]: Solubility in SIF buffers: Soluble in all SIF buffers at 37 °C during 24 h.

COc1ccc2c(ccn2C[C@@H](C)N(C)C)c1.Cl [amorphous compound 1 HCl]
TGA % Δwt. ([5]; 206.7° C., comment: De-solvation): −18.2%,
DSC measurements, Endset ([5]; DSC thermal event Tg): 48.35 °C
DSC measurements, Integral ([5]; DSC thermal event Tg): −2.2 Jg^−1
DSC measurements, Onset ([5]; DSC thermal event Tg): 37.07 °C
DSC measurements, Peak ([5]; DSC thermal event Tg): 43.00 °C
Form Assignment ([5]; heated up past the melt event on a hot stage microscope): Amorphous

COc1ccc2c(ccn2C[C@@H](C)N(C)C)c1.Cl [compound 1 HCl Form A]
XRPD (t = 0) [2, 7]: Form A
XRPD (t = 5 d) [2, 7]: Form A
XRPD (t = 10 d) [2, 7]: Form A
DSC onset [2, 7]: 203.7 °C
XRPD [2, 7]: Form A
XRPD (t = 0) ([2]; Open vial): Form A
XRPD (t = 5 d) ([2]; Open vial): Form A
XRPD (t = 10 d) ([2]; Open vial): Form A
DSC onset ([2]; Open vial): 204.4 °C
XRPD ([2]; Open vial): Form A
Observations (t = -, T = 70° C.) [6, 8]: Pink solution
XRPD (moist pellet) [6, 8]: Form A
XRPD (oven dried) [6, 8]: Form A
Observations (t = -, T = 70° C.) ([6]; Acetone 3.0 vol + Water 50 μl): Pink solution
XRPD (moist pellet) ([6]; Acetone 3.0 vol + Water 50 μl): Form A
XRPD (oven dried) ([6]; Acetone 3.0 vol + Water 50 μl): Form A
Observations (t = -, T = 70° C.) [6, 9]: Pink solution
XRPD (moist pellet) [6, 9]: Form A
XRPD (oven dried) [6, 9]: Form A
Observations (t = -, T = 70° C.) ([6]; DCM 3.0 vol + MeOH 125 μl): Pink solution
XRPD (moist pellet) ([6]; DCM 3.0 vol + MeOH 125 μl): Form A
XRPD (oven dried) ([6]; DCM 3.0 vol + MeOH 125 μl): Form A
Observations (t = -, T = 70° C.) ([6]; EtOAc 3.0 vol + EtOH 1375 μl): Pink solution
XRPD (moist pellet) ([6]; EtOAc 3.0 vol + EtOH 1375 μl): Form A
XRPD (oven dried) ([6]; EtOAc 3.0 vol + EtOH 1375 μl): Form A
Observations (t = -, T = 70° C.) ([6]; EtOH 3.0 vol + Water 50 μl): Pink solution
XRPD (moist pellet) ([6]; EtOH 3.0 vol + Water 50 μl): Form A
XRPD (oven dried) ([6]; EtOH 3.0 vol + Water 50 μl): Form A
Observations (t = -, T = 70° C.) [6, 10]: Pink solution
XRPD (moist pellet) [6, 10]: Form A
XRPD (oven dried) [6, 10]: Form A
Observations (t = -, T = 70° C.) [6, 11]: Suspension
XRPD (moist pellet) [6, 11]: Form A
XRPD (oven dried) [6, 11]: Form A
Observations (t = -, T = 70° C.) ([6]; MEK 3.0 vol + Water 50 μl): Pink solution
XRPD (moist pellet) ([6]; MEK 3.0 vol + Water 50 μl): Form A
XRPD (oven dried) ([6]; MEK 3.0 vol + Water 50 μl): Form A
Observations (t = -, T = 70° C.) ([6]; MeCN 3.0 vol + Water 25 μl): Pink solution
XRPD (oven dried) ([6]; MeCN 3.0 vol + Water 25 μl): Form A
Observations (t = -, T = 70° C.) ([6]; MeOH 3.0 vol + water 25 μl): Pink solution
XRPD (moist pellet) ([6]; MeOH 3.0 vol + water 25 μl): Form A
XRPD (oven dried) ([6]; MeOH 3.0 vol + water 25 μl): Form A
Observations (t = -, T = 70° C.) ([6]; MeTHF 3.0 vol + MeOH 425 μl): Pink solution
XRPD (moist pellet) ([6]; MeTHF 3.0 vol + MeOH 425 μl): Form A
XRPD (oven dried) ([6]; MeTHF 3.0 vol + MeOH 425 μl): Form A
Observations (t = -, T = 70° C.) ([6]; Methyl acetate 3.0 vol + Water 75 μl): Pink solution
Observations (t = -, T = 70° C.) [6, 12]: Pink solution
XRPD (moist pellet) [6, 12]: Form A
XRPD (oven dried) [6, 12]: Form A
Observations (t = -, T = 70° C.) ([6]; TBME 3.0 vol + MeOH 425 μl): Pink solution
XRPD (moist pellet) ([6]; TBME 3.0 vol + MeOH 425 μl): Form A
XRPD (oven dried) ([6]; TBME 3.0 vol + MeOH 425 μl): Form A
Observations (t = -, T = 70° C.) ([6]; THE 3.0 vol + Water 50 μl): Pink solution
XRPD (moist pellet) ([6]; THE 3.0 vol + Water 50 μl): Form A
XRPD (oven dried) ([6]; THE 3.0 vol + Water 50 μl): Form A
Observations (t = -, T = 70° C.) ([6]; Toluene 3.0 vol + MeOH 200 μl): Pink solution
XRPD (moist pellet) ([6]; Toluene 3.0 vol + MeOH 200 μl): Form A
XRPD (oven dried) ([6]; Toluene 3.0 vol + MeOH 200 μl): Form A
Observations (t = -, T = 70° C.) ([6]; Water 3.0 vol, no co-solvent): Pink solution
